Data reported in US6720346B2, “Thiazole benzamide derivatives and pharmaceutical compositions for inhibiting cell proliferation” (Agouron Pharmaceuticals, Inc., priority 2001, dated 2004).
Counter-ions that a name gives are not always drawn.

Assays:
CDK2/cyclin A = molecular target: T1, CDK2/cyclin A (Homo sapiens, UniProt P24941); assay: Inhibition of CDK2/cyclin A retinoblastoma kinase activity (Ki; % inhibition); type: biochemical; settings: for Ki: apparent Ki, CDK2/cyclin A, Rb substrate
T1 construct: made in house; host or cells: CDK2: insect cells (baculovirus); cyclin A: E. coli
Outline: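 Radiometric filter assay of CDK2/proteolyzed cyclin A (baculovirus-expressed human CDK2, 10 or 19 nM) phosphorylating an Rb fragment with 25 μM [³²P/³³P]ATP in pH 7.4 HEPES, 2% DMSO, at 30 °C for 60 or 75 min under initial-rate conditions. Library compounds screened at 30 nM for % inhibition; apparent Ki from concentration series fit to competitive or tight-binding inhibition equations.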

HCT-116 cell line = assay: Inhibition of cell growth, MTT tetrazolium salt assay; type: cell-based; settings: for IC50: Homo sapiens, HCT-116, 120 h, MTT, three to five days
Outline: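 HCT-116 cells in McCoy's 5A were dosed 4 h after plating with compounds in 0.5% DMSO and grown 3–5 days at 37 °C. Then 0.2 mg/mL MTT was added for 4 h and formazan absorbance read at 540 nm. IC50/IC90 came from semi-log plots against DMSO-only controls.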

human CDK4/cyclin D3 = molecular target: T2, human CDK4/cyclin D3 (Homo sapiens, UniProt P11802); assay: Inhibition of CDK4/cyclin D retinoblastoma kinase activity (Ki; % inhibition); type: biochemical; settings: for Ki: apparent Ki, CDK4/cyclin D3, Rb substrate
T2 construct: made in house; host or cells: insect cells co-infected with baculovirus vectors
T2 sequence (P11802 whole entry): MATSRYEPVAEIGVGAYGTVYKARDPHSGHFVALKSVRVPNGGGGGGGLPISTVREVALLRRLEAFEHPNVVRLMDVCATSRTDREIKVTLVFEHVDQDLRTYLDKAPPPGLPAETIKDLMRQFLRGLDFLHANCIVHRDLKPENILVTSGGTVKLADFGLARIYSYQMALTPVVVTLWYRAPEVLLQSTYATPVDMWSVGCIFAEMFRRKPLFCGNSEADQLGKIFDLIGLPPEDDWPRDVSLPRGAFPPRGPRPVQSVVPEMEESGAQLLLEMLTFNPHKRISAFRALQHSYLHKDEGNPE
T2 sequence (P30281 1-264 partner limits assumed): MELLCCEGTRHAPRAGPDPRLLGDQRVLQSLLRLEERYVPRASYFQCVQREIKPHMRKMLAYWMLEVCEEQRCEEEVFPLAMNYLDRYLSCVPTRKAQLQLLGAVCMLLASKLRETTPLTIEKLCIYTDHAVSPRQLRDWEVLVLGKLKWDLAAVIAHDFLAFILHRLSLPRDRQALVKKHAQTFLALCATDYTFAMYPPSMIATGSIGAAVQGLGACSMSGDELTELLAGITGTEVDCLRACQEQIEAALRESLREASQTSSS
Outline: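 Insect-cell-expressed CDK4 with truncated cyclin D3 (1-264), 5 nM, phosphorylating His-tagged Rb fragment (386-928) with 25 μM [32/33P]ATP at pH 7.4, 30 °C, 20 min (60 min for tight binders). Filter capture, phosphorimager read; % inhibition at 30 nM compound, Ki from competitive or tight-binding fits.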

[1] = HCT-116 cells, 0.25 μM compound

| CDK2 % Inhibition at 0.03 μM (CDK2/cyclin A; 0.03 μM compound) | CDK4 % Inhibition at 0.03 μM (human CDK4/cyclin D3; 0.03 μM compound) | CDK2 % Inhibition at 0.03 μM (CDK2/cyclin A; at 0.03 μM) | CDK4 % Inhibition at 0.03 μM (human CDK4/cyclin D3; at 0.03 μM) | SMILES | HCT-116 % Inhibition at 0.1 μM (HCT-116 cell line; HCT-116 cells, 0.1 μM compound) | HCT-116 % Inhibition at 0.25 μM (HCT-116 cell line; [1]) | HCT-116 % Inhibition at 0.25 μM (HCT-116 cell line; HCT-116, at 0.25 μM) | other results |
| --- | --- | --- | --- | --- | --- | --- | --- | --- |
| – | – | – | – | Nc1nc(Nc2ccc(C(=O)NC3CCN(Cc4ccccc4)CC3)cc2)sc1C(=O)c1c(F)cccc1F [Example A13, 4-[4-Amino-5-(2,6-difluoro-benzoyl)-thiazol-2-ylamino]-N-(1-benzyl-piperidin-4-yl)-benzamide] | – | – | – | Ki (CDK2/cyclin A): 79 nM; IC50 (HCT-116 cell line): 210 nM; Ki (human CDK4/cyclin D3): 9 nM |
| 0% | −1% | – | – | Nc1nc(Nc2ccc(C(=O)N(CCCCO)Cc3ccccc3)cc2)sc1C(=O)c1c(F)cccc1F [Example G351] | 24% | 62% | – | – |
| 13% | 15% | – | – | COc1ccc(NC(=O)c2ccc(Nc3nc(N)c(C(=O)c4c(F)cccc4F)s3)cc2)cc1F [Example G347] | 21% | 53% | – | – |
| – | – | 36% | 54% | Nc1nc(Nc2ccc(C(=O)NCc3ccc4c(c3)OCO4)cc2)sc1C(=O)c1c(F)cccc1F [Example G172] | – | – | 61% | HCT-116 % Inhibition at 0.1 μM (HCT-116 cell line; HCT-116, at 0.1 μM): 37% |
| 11% | 16% | – | – | CC[C@H](NC(=O)c1ccc(Nc2nc(N)c(C(=O)c3c(F)cccc3F)s2)cc1)c1ccccc1 [Example G214] | 15% | 52% | – | – |
| 17% | 15% | – | – | Nc1nc(Nc2ccc(C(=O)N3CCN(CCc4cccs4)CC3)cc2)sc1C(=O)c1c(F)cccc1F [Example G395] | 19% | 48% | – | – |
| – | – | 4% | 4% | CSc1ccccc1NC(=O)c1ccc(Nc2nc(N)c(C(=O)c3c(F)cccc3F)s2)cc1 [Example G31] | – | – | 75% | – |
| −5% | 7% | – | – | Nc1nc(Nc2ccc(C(=O)NCCCCCCO)cc2)sc1C(=O)c1c(F)cccc1F [Example G358] | 21% | 55% | – | – |
| 27% | 16% | – | – | CN(CCCNC(=O)c1ccc(Nc2nc(N)c(C(=O)c3c(F)cccc3F)s2)cc1)c1ccccc1 [Example G363] | 24% | 63% | – | – |
| – | – | 14% | 15% | C[C@H](NC(=O)c1ccc(Nc2nc(N)c(C(=O)c3c(F)cccc3F)s2)cc1)C(N)=O [Example G191] | – | – | 51% | HCT-116 % Inhibition at 0.1 μM (HCT-116 cell line; HCT-116, at 0.1 μM): 3% |
| – | – | – | – | CN1CCC[C@@]1(C)CNC(=O)c1ccc(Nc2nc(N)c(C(=O)c3c(F)cccc3F)s2)cc1 [Example A74, 4-{4-Amino-5-(2,6-difluoro-benzoyl)-thiazol-2-ylamino}-N-(1,2-dimethyl-pyrrolidin-2S-ylmethyl)-benzamide Trifluoroacetic Acid Salt] | – | – | – | Ki (CDK2/cyclin A): 9.8 nM; IC50 (HCT-116 cell line): 1900 nM; Ki (human CDK4/cyclin D3): 380 nM |
| 17% | 34% | – | – | Nc1nc(Nc2ccc(C(=O)N3CCN(Cc4ccccc4)CC3)cc2)sc1C(=O)c1c(F)cccc1F [Example G217] | 8% | 51% | – | – |
| – | – | – | – | C[C@H](CN1CCCCC1)NC(=O)c1ccc(Nc2nc(N)c(C(=O)c3c(F)cccc3F)s2)cc1 [Example A46, 4-[4-Amino-5-(2,6-difluoro-benzoyl)-thiazol-2-ylamino]-N-(1R-methyl-2-piperidin-1-yl-ethyl)-benzamide Trifluoroacetate Salt] | – | – | – | Ki (CDK2/cyclin A): 220 nM; IC50 (HCT-116 cell line): 86 nM; Ki (human CDK4/cyclin D3): 15 nM |
| – | – | – | – | Cn1cncc1CNC(=O)c1ccc(Nc2nc(N)c(C(=O)c3c(F)cccc3F)s2)cc1 [Example A64, 4-[4-Amino-5-(2,6-difluoro-benzoyl)-thiazol-2-ylamino]-N-(1-methylimidazol-5-yl-methyl)-benzamide] | – | – | – | Ki (CDK2/cyclin A): 19 nM; IC50 (HCT-116 cell line): > 5000 nM; Ki (human CDK4/cyclin D3): 22 nM |
| – | – | 15% | 19% | CCN1CCN(C(=O)c2ccc(Nc3nc(N)c(C(=O)c4c(F)cccc4F)s3)cc2)CC1 [Example G81] | – | – | 58% | – |
| 17% | 14% | – | – | COc1cccc(CNC(=O)c2ccc(Nc3nc(N)c(C(=O)c4c(F)cccc4F)s3)cc2)c1OC [Example G332] | 21% | 66% | – | – |
| – | – | – | – | COc1cc(Nc2nc(N)c(C(=O)c3c(F)cccc3F)s2)ccc1C(=O)NC(C)CN(C)C (centres unmarked) [Example A60, 4-[4-Amino-5-(2,6-difluoro-benzoyl)-thiazol-2-ylamino]-N-(2RS-dimethylamino-1-methyl-ethyl)-2-methoxy-benzamide] | – | – | – | Ki (CDK2/cyclin A): 91 nM; IC50 (HCT-116 cell line): 200 nM; Ki (human CDK4/cyclin D3): 31 nM |

| CDK2 % Inhibition at 0.03 μM (CDK2/cyclin A; 0.03 μM compound) | CDK4 % Inhibition at 0.03 μM (human CDK4/cyclin D3; 0.03 μM compound) | CDK2 % Inhibition at 0.03 μM (CDK2/cyclin A; at 0.03 μM) | CDK4 % Inhibition at 0.03 μM (human CDK4/cyclin D3; at 0.03 μM) | SMILES | HCT-116 % Inhibition at 0.1 μM (HCT-116 cell line; HCT-116 cells, 0.1 μM compound) | HCT-116 % Inhibition at 0.25 μM (HCT-116 cell line; [1]) | HCT-116 % Inhibition at 0.25 μM (HCT-116 cell line; HCT-116, at 0.25 μM) | other results |
| --- | --- | --- | --- | --- | --- | --- | --- | --- |
| 36% | 36% | – | – | Nc1nc(Nc2ccc(C(=O)NCc3ccc(OC(F)(F)F)cc3)cc2)sc1C(=O)c1c(F)cccc1F [Example G208] | 11% | 56% | – | – |
| 35% | 11% | – | – | Nc1nc(Nc2ccc(C(=O)Nc3ccc(O)c(Cl)c3)cc2)sc1C(=O)c1c(F)cccc1F [Example G394] | 14% | 73% | – | – |
| – | – | 29% | 39% | Nc1nc(Nc2ccc(C(=O)NCc3cccnc3)cc2)sc1C(=O)c1c(F)cccc1F [Example G188] | – | – | 51% | HCT-116 % Inhibition at 0.1 μM (HCT-116 cell line; HCT-116, at 0.1 μM): 17% |
| – | – | 3% | 7% | CN(C(=O)c1ccc(Nc2nc(N)c(C(=O)c3c(F)cccc3F)s2)cc1)C1CCCC1 [Example G80] | – | – | 36% | – |
| −10% | 11% | – | – | Nc1nc(Nc2ccc(C(=O)Nc3ccc(Cl)cc3)cc2)sc1C(=O)c1c(F)cccc1F [Example G288] | 16% | 60% | – | – |
| – | – | 14% | 21% | Nc1nc(Nc2ccc(C(=O)NCC3CCCCC3)cc2)sc1C(=O)c1c(F)cccc1F [Example G173] | – | – | 54% | HCT-116 % Inhibition at 0.1 μM (HCT-116 cell line; HCT-116, at 0.1 μM): 18% |
| −31% | −15% | – | – | Nc1nc(Nc2ccc(C(=O)Nc3cccc(OC(F)(F)F)c3)cc2)sc1C(=O)c1c(F)cccc1F [Example G292] | 0% | 60% | – | – |
| – | – | 11% | 19% | Nc1nc(Nc2ccc(C(=O)Nc3ccc4c(c3)S(=O)(=O)NC4=O)cc2)sc1C(=O)c1c(F)cccc1F [Example G101] | – | – | 46% | HCT-116 % Inhibition at 0.1 μM (HCT-116 cell line; HCT-116, at 0.1 μM): 10% |
| 0% | 22% | – | – | CN(CCC#N)C(=O)c1ccc(Nc2nc(N)c(C(=O)c3c(F)cccc3F)s2)cc1 [Example G296] | 0% | 43% | – | – |
| 1% | 19% | – | – | N#CCc1ccc(NC(=O)c2ccc(Nc3nc(N)c(C(=O)c4c(F)cccc4F)s3)cc2)cc1 [Example G321] | 11% | 51% | – | – |
| 35% | 27% | – | – | Cc1ccccc1CNC(=O)c1ccc(Nc2nc(N)c(C(=O)c3c(F)cccc3F)s2)cc1 [Example G244] | 30% | 67% | – | – |
| – | – | – | – | C[C@H](CN(C)C)NC(=O)c1ccc(Nc2nc(N)c(C(=O)c3c(F)cccc3F)s2)cc1 [Example A40, 4-[4-Amino-5-(2,6-difluoro-benzoyl)-thiazol-2-ylamino]-N-(2-dimethylamino-1R-methyl-ethyl)-benzamide Dihydrochloride] | – | – | – | Ki (CDK2/cyclin A): 94 nM; IC50 (HCT-116 cell line): 40 nM; Ki (human CDK4/cyclin D3): 9 nM |
| – | – | 1% | 19% | CCN(Cc1ccncc1)C(=O)c1ccc(Nc2nc(N)c(C(=O)c3c(F)cccc3F)s2)cc1 [Example G28] | – | – | 66% | – |
| – | – | −23% | 6% | Nc1nc(Nc2ccc(C(=O)NCCCN3CCCC3=O)cc2)sc1C(=O)c1c(F)cccc1F [Example G88] | – | – | 49% | HCT-116 % Inhibition at 0.1 μM (HCT-116 cell line; HCT-116, at 0.1 μM): 24% |
| 29% | 13% | – | – | Nc1nc(Nc2ccc(C(=O)NCCc3ccc(F)cc3)cc2)sc1C(=O)c1c(F)cccc1F [Example G355] | 28% | 54% | – | – |
| 9% | 3% | – | – | COC(=O)c1ccc(NC(=O)c2ccc(Nc3nc(N)c(C(=O)c4c(F)cccc4F)s3)cc2)c(C)c1 [Example G354] | 31% | 60% | – | – |
